Measured values: patent US10947220B2, “Anti-proprotein convertase subtilisin kexin type 9 (anti-PCSK9) compounds and methods of using the same in the treatment and/or prevention of cardiovascular diseases” (Shifa Biomedical Corporation, priority 2016, dated 2021)
Where two headings read alike, the source gives them in different places.

Tests used:
[1] = molecular target: T1, PCSK9/LDLR interaction (His-tagged PCSK9, recombinant LDLR-AB domain) (Homo sapiens, UniProt Q8NBP7); assay: PCSK9/LDLR binding in vitro ELISA (Circulex kit)
T1 construct: purchased Circulex
T1 sequence (Q8NBP7 153-692): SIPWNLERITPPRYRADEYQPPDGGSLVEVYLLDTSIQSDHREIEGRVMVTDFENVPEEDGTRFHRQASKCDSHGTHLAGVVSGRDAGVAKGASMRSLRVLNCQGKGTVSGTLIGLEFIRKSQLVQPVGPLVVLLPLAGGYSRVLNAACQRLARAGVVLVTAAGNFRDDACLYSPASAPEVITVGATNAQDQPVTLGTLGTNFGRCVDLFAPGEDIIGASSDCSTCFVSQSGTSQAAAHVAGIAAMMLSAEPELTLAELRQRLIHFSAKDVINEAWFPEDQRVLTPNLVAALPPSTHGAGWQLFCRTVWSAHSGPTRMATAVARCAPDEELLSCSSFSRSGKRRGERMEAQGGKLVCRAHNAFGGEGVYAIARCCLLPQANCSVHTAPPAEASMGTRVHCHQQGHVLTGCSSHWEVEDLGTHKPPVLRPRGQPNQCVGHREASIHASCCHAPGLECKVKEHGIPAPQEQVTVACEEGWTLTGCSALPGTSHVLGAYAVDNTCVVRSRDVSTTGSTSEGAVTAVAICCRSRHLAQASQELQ
T1 sequence (Q8NBP7 31-152 partner limits assumed): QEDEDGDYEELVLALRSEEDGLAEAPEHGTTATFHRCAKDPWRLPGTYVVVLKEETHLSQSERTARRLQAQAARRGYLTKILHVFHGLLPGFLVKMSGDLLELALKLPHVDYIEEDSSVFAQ
Experimental: For screening inhibitors of the PCSK9/LDLR interaction, different concentrations (0.01 nM-100 μM) of selected compounds were incubated with His-tagged PCSK9 and then added to wells that were pre-coated with recombinant LDLR-AB domain. After incubation, the plate was washed and the amount of recombinant His-tagged PCSK9 was measured using the biotinylated anti-His-tag and horseradish peroxidase conjugated Streptavidin, and quantitated using a BioTek Synergy 2 plate reader. The effect of each compound on the PCSK9 binding to the recombinant LDLR-AB domain was calculated.
Testing of compounds acquired from commercial sources was performed in our binding assay for their potential to inhibit the PCSK9/LDLR interaction. Initial screening was done using 100 μM of the compounds. Each compound was added to the binding reaction mixture in triplicate and assayed as described above. From the screening, a number of compounds were identified to have an effect on LDLR upregulation as compared to control (see Example 3 vide infra) while having no effect on PCSK9 processing and secretion (see Example 2 vide infra). Exemplary 2-carboxyanilide indoles and 2-carboxanilide pyrroles of the formula I that had >20% inhibition at 100 uM are shown in FIG. 1. Fifty five (55) structurally related 2-carboxyanlide benzofurans (compounds of the formulas II-IV) were also acquired. Compounds that inhibited the PCSK9/LDLR interaction were selected and analyzed using different compound concentrations ranging from 100 μM to 0.01 nM. […] (FIG. 4). Based on this preliminary SAR, an additional 34 compounds were designed and synthesized around SBC-115,337, and the compounds were tested in our binding assay as described in FIG. 4. From the screening, a number of benzofuran compounds were determined to have IC50's>10 uM but less </=50 uM (FIG. 2).

[2] = test system: HepG2 cells; assay: Uptake of fluorescent Dil-LDL in HepG2 cells transfected with PCSK9; format: cell-based; details: 1.2 uM compound
Experimental: The SBC compounds were validated for their ability to increase uptake of Fluorescent Dil-LDL in HepG2 cells.
The SBC compounds were validated for their ability to increase uptake of Fluorescent Dil-LDL in HepG2 cells as described in FIG. 9.
In order to confirm that these PCSK9 antagonists upregulate functional LDLR, we tested the ability of these compounds to enhance the uptake of fluorescent Dil-LDL in HepG2 cells. Briefly, HepG2 cells transfected with PCSK9 (FIG. 4) were plated and allowed to grow overnight. Compounds were added to the cells followed by the addition of fluorescent Dil-LDL. Cells were washed extensively, and the fluorescent Dil-LDL taken up by the cells were measured using the Synergy 2 plate reader (FIG. 9 and FIG. 12). […] These compounds were selected for further analysis in the in vivo studies.

[3] = test system: PCSK9 synthesis, processing and secretion; assay: Test for secreted PCSK9 (western blot) in transfected HEK-293T cells; format: cell-based; details: 25 μM, 43 hours; cells and media
Experimental: HEK-293T cells were seeded into 96 well plates in a DMEM containing 10% Fetal Bovine Serum media and incubated overnight at 37° C. Cells were transiently transfected with cDNA construct using the Lipofectamine-LTX. Compounds (25 μM) or vehicle were added, followed by additional 43 hours of incubation. Cellular PCSK9, secreted PCSK9, and cell viability were analyzed as described in Example 2 below.
The SBC compounds were validated for their ability to affect PCSK9 synthesis, processing and secretion as described in relation to FIG. 5.
The increase in the level of recombinant LDLR in the presence of PCSK9 by the above compounds could be either due to inhibiting the binding of PCSK9 to the LDLR or by inhibiting the processing and secretion of PCSK9. To eliminate the possibility these compounds interfere with PCSK9 synthesis, processing or secretion, we tested the effect of these compounds on the processing and secretion of PCSK9 as described above. HEK-293T cells were seeded into 96-well plates in a DMEM containing 10% Fetal Bovine Serum media and incubated overnight at 37° C. Cells were transiently transfected with cDNA construct using the Lipofectamine-LTX. Compounds (25 μM) or vehicle were added, followed by additional 43 hours of incubation. Cellular PCSK9, secreted PCSK9, and cell viability were analyzed for PCSK9 secretion using western blot analysis, imaged and quantitated using a LAS-4000 (GE).

[4] = test system: LDLR; assay: Recombinant LDLR upregulation in HEK-293 cells transfected with LDLR/PCSK9; format: cell-based, human; details: recombinant LDLR upregulation assay
Experimental: HEK-293T cells were seeded in a DMEM containing 10% Fetal Bovine Serum media and incubated overnight at 37° C. Cells were transiently transfected with LDLR & PCSK9 cDNA constructs using the Lipofectamine-LTX as described above. After 24 hrs, cells were treated with different compounds and incubated for an additional 48 hrs. Cells were assayed as described above for LDLR expression.
HEK-293T cells were assayed as described in relation to FIG. 7.
We have constructed the expression vector of human LDLR under the control of the cytomegalovirus promoter-enhancer (pCMV-LDLR). In addition, a construct containing the PCSK9 (pCMV-PCSK9-FLAG) was described above. These constructs were used to transiently transfect mammalian cells, and both cell lysate and supernatant were subjected to SDS-PAGE and immunoblot analysis using an anti-PCSK9 or LDLR antibody. […] Addition of inhibitors of PCSK9 processing to the latter cells should result in decreased degradation of the LDLR and the appearance of the 160K Dalton band on the gel. Using this assay, we tested our compounds for their ability to reduce the degradation of the LDLR. HEK-293 cells were used in this assay. They were grown in 96-well plates overnight, and transfected with LDLR/PCSK9. Compounds dissolved in DMSO or vehicle were added to the culture media, and incubated for 24-48 hours; cells were lysed. Cell lysates were subjected to quantitation using the above immunoassay.

[5] = test system: plasma LDL-C; assay: Efficacy in mice fed high fat diet (plasma LDL-C); format: in vivo, C57BL/6 mice
Experimental: C57/Black 6 mice and BalB/C mice were maintained on the HFD for 4 weeks. Blood plasma was collected at day 1 prior to injection of the SBC compounds. Blood plasma was collected at day 4, at 4 hours after the LPS injection, and again at 24 hours after LPS injection. Plasma cholesterol, LDL-C, HDL-C, and triglyceride levels were measured enzymatically.
Blood plasma was collected at day 1 prior to injection of the compounds. Blood plasma was collected again at day 5. Plasma LDL-C levels was measured enzymatically. (FIG. 15A) Representing the actual change in the LDL-C in mg/dL and (FIG. 15B) representing the % reduction of LDL-C after the administration of SBC-115,418 for 5 days.
SBC-115,337 was tested for efficacy in male mice (C57BL/6 mice). Mice were housed as four animals per cage under climate-controlled conditions of temperature (20-24° C.), humidity (60-70%), and alternating 12 h light/dark cycles. […]
Blood samples (75 μl) were collected 4 days after drug administration from the retro-orbital venous plexus via heparinized capillary tubes containing 2 USP units of ammonium heparin per tube (Carolina, Burlington, N.C.). […] Plasma cholesterol, LDL-C, HDL-C, and triglyceride levels were measured enzymatically.
Similarly, SBC-115,418 was tested in mice as described above. […] Plasma LDL-C levels were measured enzymatically. […]

[6] = bounds stated for compounds of FIG. 2 and FIG. 3, read-out: in vitro inhibition of the PCSK9/LDLR interaction (IC50)
[7] = compound concentrations 100 μM to 0.01 nM, FIG. 4, read-out: IC50, inhibition of the PCSK9/LDLR interaction
[8] = Table 1 / FIG. 11, SAR around SBC-115,337, read-out: IC-50

COc1cccc2cc(C(=O)Nc3ccc4c(c3)C(=O)N(C)C4=O)oc12 [SBC-115,202] was tested, and the IC50 [1, 6] was less than 10 µM, the IC50 [1, 7] was 9.5 µM and the “fluorescent Dil-LDL uptake” value [2] was “increase in fluorescently labeled LDL uptake”.

In the case of COc1ccc2oc(C(=O)Nc3ccc(C(=O)Nc4ccc(-c5nc6ccccc6o5)cc4)cc3)c(C)c2c1 [SBC-115,418], the IC50 [1, 8] is reported as 1.6 µM, the IC50 [1, 6] is reported as less than 10 µM and the “effect on PCSK9 synthesis, processing and secretion” value (“effect on PCSK9 synthesis” below) [3] is reported as “not due to its effect on synthesis and secretion of PCSK9”. For the same compound, the “level of LDLR as compared to control (DMSO-treated cells)” value (from here on “level of LDLR as compared to control”) [4] was “significant increase in the level of LDLR”, the “fluorescent Dil-LDL uptake” value [2] was “significant increases in the Dil-LDL uptake” and the “reduction in LDL-C levels relative to high fat diet animal levels” value ([5]; 10 mg/kg oral daily for 5 days, FIG. 15A-15B) was 20-25%.

NC(=O)c1ccc(NC(=O)c2ccc(NC(=O)c3cc4ccccc4o3)cc2)cc1 [SBC-115,424] was tested, and the IC50 [1, 8] was 1.7 µM, the IC50 [1, 6] was less than 10 µM and the “effect on PCSK9 synthesis” value [3] was “not due to its effect on synthesis and secretion of PCSK9”. For the same compound, the “level of LDLR as compared to control” value [4] was “significant increase in the level of LDLR” and the “fluorescent Dil-LDL uptake” value [2] was “significant increases in the Dil-LDL uptake”.

CN1C(=O)c2ccc(NC(=O)c3cc4ccccc4o3)cc2C1=O [SBC-115,341] was tested, and the IC50 [1, 6] was less than 10 µM.

O=C(Nc1ccc(C2=NCCO2)cc1)c1ccc(NC(=O)c2cc3ccccc3o2)cc1 [SBC-115,432] was tested, and the IC50 [1, 8] was 1.1 µM, the IC50 [1, 6] was less than 10 µM and the “effect on PCSK9 synthesis” value [3] was “not due to its effect on synthesis and secretion of PCSK9”. For the same compound, the “level of LDLR as compared to control” value [4] was “significant increase in the level of LDLR” and the “fluorescent Dil-LDL uptake” value [2] was “significant increases in the Dil-LDL uptake”.

In the case of O=C(Nc1ccc(-c2nc3ccccc3o2)cc1)c1ccc(NC(=O)c2cc3ccccc3o2)cc1 [SBC-115,337], the IC50 [1, 8] is reported as 0.6 µM, the IC50 [1, 6] is reported as less than 10 µM and the IC50 [1, 7] is reported as 0.5 µM. For the same compound, the “fluorescent Dil-LDL uptake” value [2] was “increase in fluorescently labeled LDL uptake” and the “reduction in LDL-C levels relative to high fat diet animal levels” value ([5]; 3 mg/kg subcutaneously daily for 4 days, with or without LPS (5 mg/Kg), FIG. 10) was 20-25%.

Compound COc1cccc2c(C)c(C(=O)Nc3ccc(C(=O)Nc4ccc(-c5ncco5)cc4)cc3)oc12 [SBC-115,445] has an IC50 [1, 8] of 2.2 µM and an IC50 [1, 6] of less than 10 µM.

CN(C(=O)c1ccc(NC(=O)c2cc3ccccc3o2)cc1)c1ccc(-c2nc3ccccc3o2)cc1 [SBC-115,423] gave an IC50 [1, 8] of 8.2 µM and an IC50 [1, 6] of less than 10 µM.

For COc1ccc2oc(C(=O)Nc3ccc(C(N)=O)cc3)c(C)c2c1 [SBC-115,270], the IC50 [1, 6] was less than 10 µM, the IC50 [1, 7] was 7 µM and the “fluorescent Dil-LDL uptake” value [2] was “increase in fluorescently labeled LDL uptake”.

O=C(Nc1ccc(-c2ncco2)cc1)c1ccc(NC(=O)c2cc3ccccc3o2)cc1 [SBC-115,433] was tested, and the IC50 [1, 8] was 2.4 µM, the IC50 [1, 6] was less than 10 µM and the “effect on PCSK9 synthesis” value [3] was “not due to its effect on synthesis and secretion of PCSK9”. For the same compound, the “level of LDLR as compared to control” value [4] was “significant increase in the level of LDLR” and the “fluorescent Dil-LDL uptake” value [2] was “significant increases in the Dil-LDL uptake”.
